In paper PMC10112881 (Cell reports, 2023):
Like-named read-outs stand apart in the source and are kept apart here.

Experiments:
HTR induced by DOI = test: Blockade of DOI-induced head-twitch response; details: DOI 1 mg/kg IP
5-HT2B = 5-HT2B (Homo sapiens, UniProt P41595); test: 5-HT2B Gq dissociation, β-arrestin2 recruitment BRET and calcium flux assays
5-HT6 = 5-HT6 (Homo sapiens, UniProt P50406); test: G protein dissociation BRET assay; assay type: cell-based; details: read-out: EC50 (partial agonism)
α2A = α2A (Homo sapiens, UniProt P08913); test: G protein dissociation BRET assay; assay type: cell-based; details: read-out: KB (antagonist)
Sequence of α2A (P08913 whole entry): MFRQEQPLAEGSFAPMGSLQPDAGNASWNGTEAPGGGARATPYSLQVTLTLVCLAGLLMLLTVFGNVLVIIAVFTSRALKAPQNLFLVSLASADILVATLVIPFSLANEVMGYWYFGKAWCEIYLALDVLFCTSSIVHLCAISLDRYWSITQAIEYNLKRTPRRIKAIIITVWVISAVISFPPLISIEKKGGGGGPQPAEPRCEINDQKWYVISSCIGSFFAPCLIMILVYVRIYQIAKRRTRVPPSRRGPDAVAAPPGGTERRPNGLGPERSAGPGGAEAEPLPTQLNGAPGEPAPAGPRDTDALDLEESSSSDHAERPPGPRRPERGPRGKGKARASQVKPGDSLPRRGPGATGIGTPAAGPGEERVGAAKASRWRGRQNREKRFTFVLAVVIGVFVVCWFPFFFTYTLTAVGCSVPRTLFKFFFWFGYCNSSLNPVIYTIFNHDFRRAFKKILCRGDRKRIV

D2 = D2 (Homo sapiens, UniProt P14416); test: G protein dissociation BRET assay; assay type: cell-based
Sequence of D2 (P14416 whole entry): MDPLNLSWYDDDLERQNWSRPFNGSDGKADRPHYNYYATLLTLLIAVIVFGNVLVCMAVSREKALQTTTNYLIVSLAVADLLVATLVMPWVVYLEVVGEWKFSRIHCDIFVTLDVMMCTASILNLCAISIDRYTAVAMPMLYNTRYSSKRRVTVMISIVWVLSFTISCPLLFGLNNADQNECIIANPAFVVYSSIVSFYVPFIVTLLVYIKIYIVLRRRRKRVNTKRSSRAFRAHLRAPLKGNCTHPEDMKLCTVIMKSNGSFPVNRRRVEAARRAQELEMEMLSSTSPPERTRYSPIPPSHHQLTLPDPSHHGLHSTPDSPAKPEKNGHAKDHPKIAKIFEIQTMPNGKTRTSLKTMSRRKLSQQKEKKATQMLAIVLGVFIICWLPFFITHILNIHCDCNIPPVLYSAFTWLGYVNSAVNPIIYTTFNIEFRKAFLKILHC

β1 = β1 (Homo sapiens, UniProt P08588); test: G protein dissociation BRET assay; assay type: cell-based; details: read-out: KB (antagonist)
5-HT5A = 5-HT5A (Homo sapiens, UniProt P47898); test: G protein dissociation BRET assay; assay type: cell-based; details: read-out: KB (antagonist), 37°C, 60 minutes
α1B = α1B (Homo sapiens, UniProt P35368); test: G protein dissociation BRET assay; assay type: cell-based; details: read-out: KB (antagonist)
head-twitch response = test: Head-twitch response
D1/5 subtypes = test: G protein dissociation BRET assay; assay type: cell-based, human
Open field test = assay type: in vivo, C57BL/6J mice; details: 24 h after
5-HT2C [1] = biological target: T1, 5-HT2C (Homo sapiens, UniProt P28335); assay type: cell-based; details: Gq partial agonism
T1 sequence (P28335 33-458): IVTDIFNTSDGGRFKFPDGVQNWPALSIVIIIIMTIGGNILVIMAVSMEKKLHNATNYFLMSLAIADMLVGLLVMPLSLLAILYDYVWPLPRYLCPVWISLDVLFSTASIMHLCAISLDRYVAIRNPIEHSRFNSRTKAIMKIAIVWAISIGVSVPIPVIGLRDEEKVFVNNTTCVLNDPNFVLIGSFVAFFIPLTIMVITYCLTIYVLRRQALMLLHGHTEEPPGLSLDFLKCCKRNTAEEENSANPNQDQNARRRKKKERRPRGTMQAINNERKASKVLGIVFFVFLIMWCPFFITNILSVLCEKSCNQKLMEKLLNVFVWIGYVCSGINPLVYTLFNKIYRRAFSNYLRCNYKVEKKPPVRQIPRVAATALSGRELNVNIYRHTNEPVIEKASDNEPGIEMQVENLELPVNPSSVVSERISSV

OCT2 = OCT2 (Homo sapiens, UniProt O15244); test: Transporter panel: OCT2
5-HT2A = 5-HT2A (Homo sapiens, UniProt P28223); assay type: cell-based; details: Gq dissociation
Sequence of 5-HT2A (P28223 whole entry): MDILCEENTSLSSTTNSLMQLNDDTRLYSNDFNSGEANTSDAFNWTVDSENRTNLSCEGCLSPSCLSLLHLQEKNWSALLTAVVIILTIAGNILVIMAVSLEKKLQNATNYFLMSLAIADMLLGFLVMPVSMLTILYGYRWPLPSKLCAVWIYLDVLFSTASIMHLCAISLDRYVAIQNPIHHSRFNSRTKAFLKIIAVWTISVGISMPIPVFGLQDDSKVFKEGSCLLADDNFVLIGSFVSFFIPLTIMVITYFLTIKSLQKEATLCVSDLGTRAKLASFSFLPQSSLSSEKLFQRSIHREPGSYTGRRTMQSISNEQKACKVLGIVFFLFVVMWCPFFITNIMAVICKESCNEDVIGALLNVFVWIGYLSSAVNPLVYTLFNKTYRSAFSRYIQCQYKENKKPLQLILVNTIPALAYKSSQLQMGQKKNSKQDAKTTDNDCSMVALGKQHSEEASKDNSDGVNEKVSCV

5-HT1A = 5-HT1A (Homo sapiens, UniProt P08908); test: β-arrestin2 recruitment BRET assay; assay type: cell-based
5-HT2C [2] = biological target: T1, 5-HT2C; assay type: cell-based
Forced swim test = assay type: in vivo, C57BL/6J mice; details: 25 h after
5-HT4 = 5-HT4 (Homo sapiens, UniProt Q13639); test: G protein dissociation BRET assay; assay type: cell-based
D3 = D3 (Homo sapiens, UniProt P35462); test: G protein dissociation BRET assay; assay type: cell-based; details: relative to dopamine
β2 = β2 (Homo sapiens, UniProt P07550); test: G protein dissociation BRET assay; assay type: cell-based; details: read-out: KB (antagonist)
rat cortical neurons = test: Dendritogenesis; assay type: cell-based
5-HT7a [3] = biological target: T2, 5-HT7a (Homo sapiens, UniProt P34969); test: cAMP accumulation GloSensor assay; assay type: cell-based; details: read-out: EC50 (inverse agonism)
T2 sequence (P34969 1-445 isoform P34969-2): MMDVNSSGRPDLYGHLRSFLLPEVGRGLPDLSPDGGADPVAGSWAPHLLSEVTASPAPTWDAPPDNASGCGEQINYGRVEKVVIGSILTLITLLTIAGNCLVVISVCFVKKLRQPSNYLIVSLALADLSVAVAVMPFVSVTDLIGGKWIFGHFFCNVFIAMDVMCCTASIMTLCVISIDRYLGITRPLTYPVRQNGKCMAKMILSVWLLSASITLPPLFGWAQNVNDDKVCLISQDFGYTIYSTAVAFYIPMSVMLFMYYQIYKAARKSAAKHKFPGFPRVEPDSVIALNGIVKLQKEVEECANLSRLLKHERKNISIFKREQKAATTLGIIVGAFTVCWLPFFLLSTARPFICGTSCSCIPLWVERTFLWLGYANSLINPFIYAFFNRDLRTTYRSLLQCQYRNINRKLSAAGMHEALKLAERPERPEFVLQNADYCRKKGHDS

α2C = α2C (Homo sapiens, UniProt P18825); test: G protein dissociation BRET assay; assay type: cell-based
Sequence of α2C (P18825 whole entry): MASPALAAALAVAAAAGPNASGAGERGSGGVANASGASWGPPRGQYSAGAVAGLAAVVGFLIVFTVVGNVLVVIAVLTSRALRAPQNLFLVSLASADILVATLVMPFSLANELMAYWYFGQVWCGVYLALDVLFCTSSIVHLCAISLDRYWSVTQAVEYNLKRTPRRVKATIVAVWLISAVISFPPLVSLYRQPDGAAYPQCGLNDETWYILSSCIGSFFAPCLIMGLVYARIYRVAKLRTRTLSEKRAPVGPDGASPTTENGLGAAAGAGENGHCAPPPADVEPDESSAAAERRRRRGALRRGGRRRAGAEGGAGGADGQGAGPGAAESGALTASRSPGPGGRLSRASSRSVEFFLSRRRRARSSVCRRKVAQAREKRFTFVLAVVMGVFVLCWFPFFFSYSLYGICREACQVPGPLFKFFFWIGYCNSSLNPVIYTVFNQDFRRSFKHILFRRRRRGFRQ

[4] = cited from earlier work
[5] = system: 5-HT1 Gi/o-coupled receptor subtypes; test: G protein dissociation BRET assay; assay type: cell-based, human
hERG (KV11.1) channel [6] = biological target: T3, hERG (KV11.1) channel (Homo sapiens, UniProt Q12809); details: read-out: IC50 (hERG inhibition)
T3 sequence (Q12809 whole entry): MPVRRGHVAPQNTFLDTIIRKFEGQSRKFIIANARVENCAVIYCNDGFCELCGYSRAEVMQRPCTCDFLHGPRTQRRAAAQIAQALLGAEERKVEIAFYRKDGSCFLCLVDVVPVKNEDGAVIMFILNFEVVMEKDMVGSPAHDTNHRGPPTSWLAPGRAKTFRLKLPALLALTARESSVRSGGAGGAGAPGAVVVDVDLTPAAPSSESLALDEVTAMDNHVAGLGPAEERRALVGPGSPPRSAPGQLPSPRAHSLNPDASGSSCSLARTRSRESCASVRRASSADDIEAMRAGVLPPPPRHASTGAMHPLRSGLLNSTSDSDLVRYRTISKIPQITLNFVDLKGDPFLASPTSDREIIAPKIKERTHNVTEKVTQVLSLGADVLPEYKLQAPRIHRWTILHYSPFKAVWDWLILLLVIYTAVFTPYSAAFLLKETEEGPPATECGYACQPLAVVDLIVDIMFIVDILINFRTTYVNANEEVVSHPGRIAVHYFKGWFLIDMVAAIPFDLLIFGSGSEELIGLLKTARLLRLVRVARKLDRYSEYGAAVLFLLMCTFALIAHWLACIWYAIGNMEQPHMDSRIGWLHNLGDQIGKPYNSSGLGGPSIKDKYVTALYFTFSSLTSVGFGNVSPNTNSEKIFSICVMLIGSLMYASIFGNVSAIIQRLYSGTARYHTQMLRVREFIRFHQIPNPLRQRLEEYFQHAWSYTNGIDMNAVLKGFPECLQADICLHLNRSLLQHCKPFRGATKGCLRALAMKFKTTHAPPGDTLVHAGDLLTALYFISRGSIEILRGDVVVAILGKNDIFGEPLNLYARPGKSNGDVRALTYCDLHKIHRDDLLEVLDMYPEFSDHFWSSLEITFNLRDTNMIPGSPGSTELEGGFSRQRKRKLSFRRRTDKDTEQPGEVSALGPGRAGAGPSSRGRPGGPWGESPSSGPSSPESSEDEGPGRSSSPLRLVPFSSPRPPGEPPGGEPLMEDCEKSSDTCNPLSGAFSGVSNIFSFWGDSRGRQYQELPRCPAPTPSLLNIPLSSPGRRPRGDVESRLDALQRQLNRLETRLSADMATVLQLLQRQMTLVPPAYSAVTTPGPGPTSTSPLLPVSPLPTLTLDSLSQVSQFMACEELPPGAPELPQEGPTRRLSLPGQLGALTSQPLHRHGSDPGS

[7] = system: 44 known off-targets and other transporters; test: Eurofins panel of 44 known off-targets and other transporters
Nav1.5 sodium channels = Nav1.5 sodium channels (Homo sapiens, UniProt Q14524); test: Off-target panel: Nav1.5
5-HT7a [8] = biological target: T2, 5-HT7a; test: G protein dissociation BRET assay; assay type: cell-based
[9] = Pharmacokinetics in plasma and brain of mice; details: for mean plasma Cmax / Cmax: IP 6.75 mg/kg; for mean terminal T1/2, plasma: range over doses; for Cmax: read-out: mean plasma Cmax
α1A = α1A (Homo sapiens, UniProt P35348); test: G protein dissociation BRET assay; assay type: cell-based; details: read-out: KB (antagonist)
Sequence of α1A (P35348 whole entry): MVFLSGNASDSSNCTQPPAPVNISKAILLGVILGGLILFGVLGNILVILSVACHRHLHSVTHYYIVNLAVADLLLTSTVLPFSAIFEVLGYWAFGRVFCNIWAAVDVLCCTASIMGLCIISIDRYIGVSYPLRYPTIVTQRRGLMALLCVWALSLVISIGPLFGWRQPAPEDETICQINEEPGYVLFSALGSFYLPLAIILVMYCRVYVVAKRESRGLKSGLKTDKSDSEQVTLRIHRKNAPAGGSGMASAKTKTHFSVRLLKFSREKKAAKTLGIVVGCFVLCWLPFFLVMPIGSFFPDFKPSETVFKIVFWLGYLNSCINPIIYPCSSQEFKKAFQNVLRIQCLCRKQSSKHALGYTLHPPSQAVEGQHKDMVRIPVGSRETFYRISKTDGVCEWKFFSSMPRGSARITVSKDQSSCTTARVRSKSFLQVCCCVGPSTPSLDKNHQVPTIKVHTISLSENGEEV

α2B = α2B (Homo sapiens, UniProt P18089); test: G protein dissociation BRET assay; assay type: cell-based; details: read-out: KB (antagonist)
[10] = system: primary rat cortical neurons; test: Cell viability of primary cortical neurons; assay type: cell-based; details: every tested concentration
hERG (KV11.1) channel [11] = biological target: T3, hERG (KV11.1) channel; test: hERG inhibition
D4 = D4 (Homo sapiens, UniProt P21917); test: G protein dissociation BRET assay; assay type: cell-based

Sequence of 5-HT2B (P41595 whole entry): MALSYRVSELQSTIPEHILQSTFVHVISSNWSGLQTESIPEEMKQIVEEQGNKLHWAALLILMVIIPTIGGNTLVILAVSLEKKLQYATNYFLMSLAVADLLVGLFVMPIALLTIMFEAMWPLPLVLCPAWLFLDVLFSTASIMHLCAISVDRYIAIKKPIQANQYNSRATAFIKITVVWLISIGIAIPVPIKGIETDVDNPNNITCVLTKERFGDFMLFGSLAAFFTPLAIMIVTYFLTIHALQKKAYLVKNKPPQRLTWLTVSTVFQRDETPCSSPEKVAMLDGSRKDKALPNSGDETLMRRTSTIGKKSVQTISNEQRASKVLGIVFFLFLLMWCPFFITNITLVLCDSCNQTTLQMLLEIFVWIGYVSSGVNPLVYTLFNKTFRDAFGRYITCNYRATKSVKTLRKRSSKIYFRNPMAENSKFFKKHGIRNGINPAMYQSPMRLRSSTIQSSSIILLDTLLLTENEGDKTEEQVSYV

Q: With `CCN(CC)C(=O)[C@@H]1C=C2c3cccc4[nH]c(Br)c(c34)C[C@H]2N(C)C1.CCN(CC)C(=O)[C@@H]1C=C2c3cccc4[nH]c(Br)c(c34)C[C@H]2N(C)C1.O=C(O)C(O)C(O)C(=O)O` [2-Br-LSD, (6aR,9R)-2-bromolysergic acid diethylamide (2:1) (+)-tartrate] as the compound, how does the “time-course of blockade of the response to DOI” value (HTR induced by DOI; 1 mg/kg IP pre-treatment) read?
A: almost completely blocked during the first 10 minutes

Q: And the “attenuation of the response to DOI” value (HTR induced by DOI; 3 mg/kg IP pre-treatment, 30 min)?
A: 76%

Q: What about the 5-HT2B agonist activity (5-HT2B; Gq dissociation, β-arrestin2 recruitment, Gq-mediated calcium flux) of the same compound?
A: failed to induce

Q: What about the 5-HT2B antagonist activity (5-HT2B; vs 5-HT) of the same compound?
A: potent antagonist activity

Q: And the EC50 (5-HT6)?
A: 0.35 nM

Q: And the Kb (α2A)?
A: 12 nM

Q: And the EC50 (D2)?
A: 0.35 nM

Q: And the Kb (β1)?
A: 113 nM

Q: What about the Kb (5-HT5A) of the same compound?
A: 4.14 nM

Q: What about the Kb (α1B) of the same compound?
A: 38 nM

Q: And the “induction of the HTR” value (head-twitch response; 0.1–10 mg/kg IP, male C57BL/6J mice, 60 min)?
A: did not induce the HTR

Q: And the “induction of the HTR after S-(–)-raclopride pretreatment” value (head-twitch response; raclopride 1 mg/kg, then 2-Br-LSD 3 mg/kg)?
A: did not induce the HTR

Q: What about the “agonism at D1/5 subtypes” value (D1/5 subtypes) of the same compound?
A: lacks strong agonism

Q: And the “locomotion (distance travelled)” value (Open field test; 0.3, 1, 3 mg/kg IP, females and males)?
A: neither females nor males showed a significant increase in locomotion

Q: And the “increase in time in the arena center” value (Open field test; female mice, 1 mg/kg IP)?
A: 88.18 ± 18.89 s

Q: What about the “increased exploration of the open field center” value (Open field test; male mice) of the same compound?
A: not significant

Q: And the EMAX (5-HT2C [1])?
A: 45.8%

Q: And the IC50 (OCT2)?
A: 500 nM

Q: What about the EC50 (5-HT2A) of the same compound?
A: 0.81 nM

Q: What about the EMAX (5-HT2A; normalized to 5-HT) of the same compound?
A: 59.8%

Q: What about the β-arrestin2 recruitment agonism (5-HT1A) of the same compound?
A: no detectable β-arrestin2 recruitment agonism

Q: And the β-arrestin2 recruitment agonism (5-HT2C [2])?
A: no detectable β-arrestin2 recruitment agonism

Q: What about the decrease in immobility (Forced swim test; females, 1 mg/kg IP) of the same compound?
A: 35.18 ± 10.03 s

Q: What about the decrease in immobility (Forced swim test; males, 0.3 mg/kg IP) of the same compound?
A: 20.89 ± 8.249 s

Q: What about the decrease in immobility (Forced swim test; males, 1 mg/kg IP) of the same compound?
A: 27.27 ± 8.226 s

Q: What about the decrease in immobility (Forced swim test; males, 3 mg/kg IP) of the same compound?
A: 31.36 ± 8.226 s

Q: And the “activity at 5-HT4” value (5-HT4)?
A: lack potent agonist or antagonist activity

Q: What about the EMAX (D3) of the same compound?
A: 32%

Q: What about the Kb (β2) of the same compound?
A: 47 nM

Q: And the “total length of the dendritic arbor” value (rat cortical neurons; 1 and 10 μM, 3 h at DIV3)?
A: increased the total length of the dendritic arbor

Q: And the “number of dendrites crossing the Sholl radii” value (rat cortical neurons; 3 h treatment DIV3, read DIV6, maximal at 1 and 10 μM)?
A: dose-dependent increase

Q: What about the EC50 (5-HT7a [3]) of the same compound?
A: 5.1 nM

Q: What about the EC50 (α2C) of the same compound?
A: 10.4 nM

Q: And the EMAX (α2C; partial agonism)?
A: 40.5%

Q: And the “side effects in cluster headache patients” value ([4]; 30 μg/kg orally on three occasions)?
A: only minor side effects

Q: And the “efficacy against cluster headaches” value [4]?
A: showed efficacy against cluster headaches

Q: And the “subjective effects in humans” value ([4]; intravenous infusion of 18–22 μg/kg)?
A: more intense effects

Q: What about the “subjective effects in humans” value ([4]; oral doses 64–256 μg/kg) of the same compound?
A: mild subjective responses

Q: What about the “agonism at all 5-HT1 subtypes” value [5] of the same compound?
A: potent pan-agonism

Q: And the IC50 (hERG (KV11.1) channel [6])?
A: 31600 nM

Q: And the “preference for serotonin and dopamine GPCRs over off-targets” value [7]?
A: > 100 fold

Q: What about the EC50 (Nav1.5 sodium channels) of the same compound?
A: 1100 nM

Q: What about the “activity at 5-HT7a” value (5-HT7a [8]) of the same compound?
A: act as antagonists

Q: And the “level in the brain” value ([9]; 4 h post-dosing)?
A: below the lower limit of detection

Q: What about the “plasma concentrations, male compared to female mice” value ([9]; IP) of the same compound?
A: 2–5 x

Q: What about the “mean plasma Cmax” value ([9]; females) of the same compound?
A: 826.06 ng/mL

Q: What about the “mean plasma Cmax” value ([9]; males) of the same compound?
A: 1558.74 ng/mL

Q: And the “mean terminal T1/2, plasma” value ([9]; IP, female mice)?
A: 54 to 156 min

Q: And the “mean T1/2 in the brain” value ([9]; IP, females)?
A: 24 to 78 min

Q: What about the “mean brain Tmax” value ([9]; IP, male and female mice) of the same compound?
A: 10.2 min

Q: And the “mean terminal T1/2, plasma” value ([9]; IP, male mice)?
A: 72 to 84 min

Q: And the “mean T1/2 in the brain” value ([9]; IP, males)?
A: 42 to 60 min

Q: And the “plasma Tmax” value ([9]; IP, all groups except male mice at 0.75 mg/kg)?
A: 12 min

Q: What about the “plasma Tmax” value ([9]; IP, male mice, 0.75 mg/kg) of the same compound?
A: 30 min

Q: And the Cmax ([9]; females)?
A: 2100 nM

Q: What about the Cmax ([9]; males) of the same compound?
A: 3900 nM

Q: And the Kb (α1A)?
A: 43 nM

Q: What about the Kb (α2B) of the same compound?
A: 79 nM

Q: And the neuronal viability [10]?
A: not different from control neurons

Q: And the EC50 (hERG (KV11.1) channel [11])?
A: 31600 nM

Q: And the EC50 (D4)?
A: 1.2 nM
